{
  "source": "patent US20050287203A1",
  "about": "“Formulation comprising testosteron undecanoate and castor oil” (priority 2002, published 2005)",
  "experiment": "concentration of TU attainable in castor oil solution",
  "assay_type": "physicochemical",
  "conditions": "liquid carrier castor oil",
  "method": "The choice of castor oil as the liquid carrier, in conjunction with the choice of testosterone undecanoate as the androgen, makes for a solution which can comprise about 200-250 mg of TU per ml. This amounts to approximately […] of testosterone per ml. This is a novel achievement for any orally administerable solution of testosterone in any form. The invention, in one aspect, therefore includes a pharmaceutical formulation in the form of a capsule for oral administration comprising testosterone undecanoate as the active ingredient dissolved in a pharmaceutically acceptable liquid carrier in a concentration of 200-250 mg/ml.",
  "data": [
    {"smiles": "CCCCCCCCCCC(=O)O[C@H]1CC[C@H]2[C@@H]3CCC4=CC(=O)CC[C@]4(C)[C@H]3CC[C@]12C", "note": "[testosterone undecanoate]", "values": [
      {"measurement": "amount of TU the solution in castor oil can comprise", "value": "200-250 mg of TU per ml"}
    ]}
  ]
}
